Laboratory results: patent US20140045858A1, “COMPOUND P[…] ALZHEIMER'S DISEASE AND PREPARATION METHOD THEREOF” (priority 2011, published 2014)

Tests used:
[1] = oral delivery; cited from earlier work
[2] = tested on: rats' cholinergic and oxidative systems; assay: Pharmacodynamic study, overall conclusions (rat amnesia model); type: in vivo; conditions: conclusion from Groups 3, 6 and 7, single-component patches
Text: Finally, the activities/contents of AChE, SOD, GSH-Px and MDA in Groups 3-5 approximate to those in the blank control group, that is to say, the levels of oxidase in rat's cholinergic and oxidative systems in the various delivery groups are close to normal level.

Row | SMILES | half life (t½) [1] [h] | anti-oxidation effect [2] | function of anti-cholinergic damage [2]
1 | Cc1nc(C)c(C)nc1C.O=P(O)(O)O [tetramethylpyrazine phosphate] | 2.89 | very strong anti-oxidation effect | relatively poor function of anti-cholinergic damage
2 | C/C=C1\[C@H]2C=C(C)C[C@]1(N)c1ccc(=O)[nH]c1C2 [huperzine A] | – | certain effect of anti-oxidation | certain function of anti-cholinergic damage
